pIC50: −log10 of the molar value. Where two headings read alike, the source gives them in different places.
Experiments:
CWR22RV1 cells = experiment: Inhibition of proliferation of CWR22RV1 cells (CCK-8); type: cell-based, human; settings: Homo sapiens, CWR22Rv1, 144 h, 6 days
Summary of the method: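 Cells seeded at 1500/well, cultured overnight, then exposed to compounds in 3-fold dilutions (9 concentrations from 10 μM top final, 0.1% DMSO) for 6 days at 37 °C. Viability read by CCK-8 absorbance at 450 nm after 2.5 h; IC50 from dose-response inhibition fit.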

BRD3(1,2) = BRD3(1,2) (Homo sapiens (Human), UniProt Q15059); experiment: AlphaScreen binding of compounds on BRD3 (D1+D2); settings: read-out: IC50 against BRD3(1,2)
Source text: Homogeneous time-resolved fluorescence technology (HTRF) was used to determine the binding effect of compounds on BRD4 (D1+D2) and BRDT (D1) proteins, as well as AlphaScreen method was used to detect the binding effect of compounds on BRD2 (D1+D2) and BRD3 (D1+D2) proteins.
The compounds were screened in vitro, and each compound was serially diluted to 10 concentrations. Four proteins BRD4 (D1+D2), BRDT (D1), BRD2 (D1+D2) and BRD3 (D1+D2) were chosen to determine the IC50 values of compounds (see Table 1).
4. Compound treatment: The test compound was dissolved in dimethyl sulfoxide (DMSO), and the storage concentration was 10 mM.
6. AlphaScreen Detection Procedures:
1) Preparing One-Fold Concentration of Detection Buffer
One-fold concentration of detection buffer was prepared (Improved HEPES buffer)
2) Gradient Dilution of Compounds
Echo automatic sampler was used to transfer the compound to the detection plate for gradient dilution, so that the final concentration of dimethyl sulfoxide was 0.1%.
3) Preparation of Protein Solution
The protein was dissolved in one-fold concentration of detection buffer.
4) Preparation of Substrate Solution
The peptide was dissolved in one-fold concentration of detection buffer to prepare the substrate solution.
5) 5 μL protein solution was transferred to the detection plate, and one-fold concentration of detection buffer (5 μL) was placed in the negative control wells.
6) The plate was incubated for 15 min at room temperature.
7) 5 μL substrate solution was added to each well to start the reaction.
8) The plate was incubated for additional 60 min at room temperature.
9) Preparation of acceptor solution and donor solution in one-fold concentration of assay buffer Acceptor solution (15 μL) and donor solution (15 μL) were respectively added, and then incubated at room temperature for 60 min and protected against exposure to light.
10) The endpoint was read in EnSpire and Alpha mode.
The experimental data were recorded in an Excel file and equation (1) was used to get the inhibition rate. Inh%=(Max−Signal)/(Max−Min)*100 Equation (1):
The obtained data were input into GraphPad software, and equation (2) was used to obtain the IC50 value. Y=Bottom+(Top−Bottom)/(1+10^((Log IC50−X)*Hill Slope)) Formula (2): […]
Wherein, Y axis was the inhibition rate, and the X axis was the compound concentration.

Vcap cells = experiment: Compound in combination with androgen receptor inhibitor HC-1119, proliferation of Vcap cells (CCK-8); type: cell-based, human; settings: for pIC50: Homo sapiens, VCaP, 144 h, 6 days, read-out: IC50 for inhibition on the activity of Vcap; for effect of combination with HC-1119 on inhibitory action on Vcap cells (in words): in combination with HC-1119, Vcap cells
Method: • Vcap cell line (Cell Bank of Chinese Academy of Sciences, TCHu220) • FBS (Gibco, Cat. No. 10099-141) • 0.01M PBS (Biosharp, Cat. No. 162262) • DMEM HIGH Glucose (Hyclone, Cat. No. SH30243.01) • Penicillin-Streptomycin (Hyclone, Cat. No. SV30010) • Cell counting kit-8 (Signalway Antibody, Cat. No. CP002) • DMSO (Sigma, Cat. No. D5879) • Centrifuge Tube, 15 ml (Excell Bio, Cat. No. CS015-0001) • Cell Culture Dish (Excell Bio, Cat. No. CS016-0128) • 96-well cell culture cluster (Corning, Cat. No. 3599) 2. Experimental Method
1) Vcap cells were subcultured in cell culture media, and the cells in good growth condition were seeded in a 96-well plate, 60 μL for each well, thus the number of cells per well was 10000, then the plate was cultured overnight in a 37° C., 5% CO2 cell incubator.
2) The drug was prepared with dimethyl sulfoxide (DMSO) as a 10 mM stock solution. Prior to use, the solution was diluted 3 times with DMSO, and then diluted with a 3-fold gradient to obtain 9 concentration gradients. Then, each concentration of the compound was further diluted 200 times with the culture media (to ensure that DMSO concentration in the culture system was 0.1%), 2 repeat wells for each concentration. The diluted solution of each compound (20 μL) was added to the cell culture well (with a final concentration of 10 μM, 3.3 μM, 1.1 μM . . . ); while the solution of HC-1119 was diluted with culture media to the concentrations of 50 μM and […], respectively, and the diluted solution of HC-1119 was added to the corresponding cell culture well (with a final concentration of 10 μM, 1 μM), then shaken gently for mixing. In addition, three negative control wells containing only cells and three blank control wells containing only culture media (20 μL DMSO diluted 200 times with culture media being added to six wells) were included.
(1) After culturing for 6 days, 10 μL CCK-8 was added to each well and cultured for additional 2.5 h in a 37° C., 5% CO2 cell incubator.
(2) The absorbance (OD value) at 450 nm was measured with a multifunctional microplate reader.
(3) The data was analyzed by the Dose-response-inhibition equation in the software GraphPad Prism6, and the IC50 value was obtained.

[1] = in combination with 1 μM HC-1119, Vcap cells
[2] = in combination with 10 μM HC-1119, Vcap cells

Chain of BRD3(1,2) (Q15059 29-417): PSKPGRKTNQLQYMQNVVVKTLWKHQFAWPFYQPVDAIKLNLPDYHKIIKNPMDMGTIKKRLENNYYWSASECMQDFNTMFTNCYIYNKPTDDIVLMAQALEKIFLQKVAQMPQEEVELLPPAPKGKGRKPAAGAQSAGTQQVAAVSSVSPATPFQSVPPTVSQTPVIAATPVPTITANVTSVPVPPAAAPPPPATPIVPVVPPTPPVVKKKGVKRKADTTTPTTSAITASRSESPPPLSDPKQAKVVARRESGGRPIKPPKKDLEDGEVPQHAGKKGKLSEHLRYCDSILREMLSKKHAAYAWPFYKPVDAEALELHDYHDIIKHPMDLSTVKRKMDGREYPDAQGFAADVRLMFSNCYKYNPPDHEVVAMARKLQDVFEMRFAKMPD

Row | pIC50 (BRD3(1,2)) | pIC50 (Vcap cells; compound alone, Vcap cells) | pIC50 (Vcap cells; [1]) | pIC50 (Vcap cells; [2]) | Structure (SMILES) | pIC50 (CWR22RV1 cells) | effect of combination with HC-1119 on inhibitory action on Vcap cells (in words) (Vcap cells)
1 | 8.28 |  |  |  | [2H]C([2H])([2H])n1cc(-c2cc(NS(=O)(=O)CC)ccc2N2CCC3(CC2)CC3)c2cc[nH]c2c1=O [Compound 41] | 8.30 | 
2 |  |  |  |  | [2H]C([2H])([2H])n1cc(-c2cc(S(=O)(=O)CC)ccc2N2CCC3(CC3)C2)c2cc[nH]c2c1=O [Compound 55, 4-(5(ethylsulfonyl)-2-(5-aza-spiro[2.4]heptan-5-yl)phenyl)-6-trideuteromethyl-1H-pyrrolo[2,3-c]pyridin-7(6H)-one] | 7.68 | 
3 | 8.33 | 7.82 | 9.48 | 9.89 | [2H]C([2H])([2H])n1cc(-c2cc(S(C)(=O)=O)ccc2N2CCC3(CC2)CC3(F)F)c2cc[nH]c2c1=O [Compound 184, 4-(2-(1,1-difluoro-6-aza-spiro[2.5]octan-6-yl)-5-(methylsulfonyl)phenyl)-6-trideuteromethyl-1H-pyrrolo[2,3-c]pyridin-7(6H)-one] | 8.09 | improve the inhibitory action
4 | 8.17 | 7.75 | 9.26 | 9.74 | [2H]C([2H])([2H])n1cc(-c2cc(S(C)(=O)=O)c(F)cc2N2CCC3(CC2)CC3(F)F)c2cc[nH]c2c1=O [Compound 219, 4-(2-(1,1-difluoro-6-aza-spiro[2.5]octan-6-yl)-4-fluoro-5-(methylsulfonyl)phenyl)-6-trideuteromethyl-1H-pyrrolo[2,3-c]pyridin-7(6H)-one] | 8.15 | improve the inhibitory action
